Source: PubChem BioAssay (NCI)
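How tested: cells in 96-well plates exposed to compound for 48 hours at five concentrations. GI50 marks 50% less growth. TGI is the concentration that stops growth completely.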

How the values were obtained:
Test in all cases: NCI anticancer screen, dose series, 48 h
[1] = system: SNB-19 CNS
[2] = system: 786-0 renal
[3] = system: SK-MEL-2 melanoma
[4] = system: HT29 colon
[5] = system: SK-MEL-28 melanoma
[6] = system: KM12 colon
[7] = system: OVCAR-5 ovarian
[8] = system: SNB-75 CNS
[9] = system: DU-145 prostate
[10] = system: K-562 leukemia
[11] = system: LOX IMVI melanoma
[12] = system: NCI-H226 lung
[13] = system: SF-268 CNS
[14] = system: NCI/ADR-RES ovarian
[15] = system: NCI-H522 lung
[16] = system: OVCAR-4 ovarian
[17] = system: IGROV1 ovarian
[18] = system: MDA-MB-231 breast
[19] = system: HCT-15 colon
[20] = system: A549 NSCLC
[21] = system: NCI-H23 lung
[22] = system: HCC-2998 colon
[23] = system: SK-OV-3 ovarian
[24] = system: HOP-62 NSCLC
[25] = system: BT-549 breast
[26] = system: ACHN renal
[27] = system: SR leukemia
[28] = system: M14 melanoma
[29] = system: RXF 393 renal
[30] = system: MCF7 breast
[31] = system: SF-295 CNS
[32] = system: SF-539 CNS
[33] = system: HCT-116 colon
[34] = system: OVCAR-3 ovarian
[35] = system: MALME-3M melanoma
[36] = system: OVCAR-8 ovarian
[37] = system: UO-31 renal
[38] = system: SW-620 colon
[39] = system: TK-10 renal
[40] = system: COLO 205 colon
[41] = system: NCI-H460 lung
[42] = system: T-47D breast
[43] = system: UACC-257 melanoma
[44] = system: CAKI-1 renal
[45] = system: MOLT-4 leukemia
[46] = system: HS 578T breast
[47] = system: EKVX NSCLC
[48] = system: MDA-MB-435
[49] = system: SK-MEL-5 melanoma
[50] = system: A498 renal
[51] = system: CCRF-CEM leukemia
[52] = system: UACC-62 melanoma
[53] = system: U251 CNS
[54] = system: RPMI-8226 leukemia
[55] = system: HL-60(TB) leukemia
[56] = system: HOP-92 NSCLC
[57] = system: SN12C renal
[58] = system: PC-3 prostate

C[C@]12CC[C@H]3[C@@H](C[C@@H]4N=C(c5ccc(O)cc5)S[C@@]45C[C@H](O)CC[C@]35C)[C@@H]1CC[C@@H]2O
GI50 [1]: 7.95 µM | TGI [1]: > 100 µM | GI50 [2]: 0.423 µM | TGI [2]: 2.39 µM | GI50 [3]: 4.42 µM | TGI [3]: 69.4 µM | GI50 [4]: 3.13 µM | TGI [4]: 20.4 µM | GI50 [5]: 3.05 µM | TGI [5]: 66 µM | GI50 [6]: 7.24 µM | TGI [6]: > 100 µM | GI50 [7]: 13.3 µM | TGI [7]: > 100 µM | GI50 [8]: 1.84 µM | TGI [8]: 25.7 µM | GI50 [9]: 9.54 µM | TGI [9]: > 100 µM | GI50 [10]: 3.48 µM | TGI [10]: > 100 µM | GI50 [11]: 2.67 µM | TGI [11]: 14.6 µM | GI50 [12]: 27.4 µM | TGI [12]: > 100 µM | GI50 [13]: 5.32 µM | TGI [13]: > 100 µM | GI50 [14]: 6.77 µM | TGI [14]: > 100 µM | GI50 [15]: 22.6 µM | TGI [15]: > 100 µM | GI50 [16]: 7.24 µM | TGI [16]: > 100 µM | GI50 [17]: 11.1 µM | TGI [17]: > 100 µM | GI50 [18]: 6.98 µM | TGI [18]: 32.8 µM | GI50 [19]: 2.43 µM | TGI [19]: 20.7 µM | GI50 [20]: 5.95 µM | TGI [20]: > 100 µM | GI50 [21]: 14 µM | TGI [21]: > 100 µM | GI50 [22]: 31.9 µM | TGI [22]: > 100 µM | GI50 [23]: 19 µM | TGI [23]: > 100 µM | GI50 [24]: 5.26 µM | TGI [24]: 50.5 µM | GI50 [25]: 1.14 µM | TGI [25]: 19.4 µM | GI50 [26]: 7.55 µM | TGI [26]: > 100 µM | GI50 [27]: 1.37 µM | TGI [27]: 33.8 µM | GI50 [28]: 2.86 µM | TGI [28]: 29.3 µM | GI50 [29]: 0.377 µM | TGI [29]: 1.31 µM | GI50 [30]: 3.34 µM | TGI [30]: 21.5 µM | GI50 [31]: 0.413 µM | TGI [31]: 2.03 µM | GI50 [32]: 0.454 µM | TGI [32]: 3.23 µM | GI50 [33]: 2.37 µM | TGI [33]: 27.4 µM | GI50 [34]: 8.67 µM | TGI [34]: 83.7 µM | GI50 [35]: 3.76 µM | TGI [35]: > 100 µM | GI50 [36]: 40.9 µM | TGI [36]: > 100 µM | GI50 [37]: 2.48 µM | TGI [37]: 20.4 µM | GI50 [38]: 8.4 µM | TGI [38]: > 100 µM | GI50 [39]: > 100 µM | TGI [39]: > 100 µM | GI50 [40]: 9.14 µM | TGI [40]: > 100 µM | GI50 [41]: 4.94 µM | TGI [41]: > 100 µM | GI50 [42]: 10.3 µM | TGI [42]: > 100 µM | GI50 [43]: 19.1 µM | TGI [43]: > 100 µM | GI50 [44]: 4.12 µM | TGI [44]: > 100 µM | GI50 [45]: 1.93 µM | TGI [45]: > 100 µM | GI50 [46]: 1.59 µM | TGI [46]: 60.1 µM | GI50 [47]: 7.29 µM | TGI [47]: > 100 µM | GI50 [48]: 16.4 µM | TGI [48]: > 100 µM | GI50 [49]: 3.15 µM | TGI [49]: 13.1 µM | GI50 [50]: 3.51 µM | TGI [50]: 21.3 µM | GI50 [51]: 2.05 µM | TGI [51]: 47.2 µM | GI50 [52]: 2.43 µM | TGI [52]: 7.64 µM | GI50 [53]: 2.23 µM | TGI [53]: 67.3 µM | GI50 [54]: 0.378 µM | TGI [54]: 2.5 µM | GI50 [55]: 4.09 µM | TGI [55]: > 100 µM

COc1ccc(Nc2ncccc2C(=O)NCc2cn(Cc3cccc(Oc4ccccc4)c3)nn2)cc1
GI50 [1]: 3.55 µM | TGI [1]: > 100 µM | GI50 [2]: 5.59 µM | TGI [2]: > 100 µM | GI50 [3]: 3.66 µM | TGI [3]: > 100 µM | GI50 [4]: 3.66 µM | TGI [4]: 15.4 µM | GI50 [5]: 3.88 µM | TGI [5]: > 100 µM | GI50 [6]: 3.43 µM | TGI [6]: > 100 µM | GI50 [7]: 4.23 µM | TGI [7]: > 100 µM | GI50 [8]: 3.09 µM | TGI [8]: > 100 µM | GI50 [9]: 3.76 µM | TGI [9]: > 100 µM | GI50 [10]: 3.48 µM | TGI [10]: > 100 µM | GI50 [11]: 3.6 µM | TGI [11]: > 100 µM | GI50 [12]: 3.92 µM | TGI [12]: > 100 µM | GI50 [13]: 4.59 µM | TGI [13]: > 100 µM | GI50 [56]: 5.67 µM | TGI [56]: > 100 µM | GI50 [57]: 4.75 µM | TGI [57]: > 100 µM | GI50 [14]: 2.12 µM | TGI [14]: 6.69 µM | GI50 [15]: 2.13 µM | TGI [15]: 5.44 µM | GI50 [16]: 5.19 µM | TGI [16]: > 100 µM | GI50 [17]: 5.89 µM | TGI [17]: > 100 µM | GI50 [18]: 3.09 µM | TGI [18]: 8.62 µM | GI50 [19]: 3.93 µM | TGI [19]: > 100 µM | GI50 [20]: 3.44 µM | TGI [20]: > 100 µM | GI50 [21]: 3.45 µM | TGI [21]: > 100 µM | GI50 [22]: 2.53 µM | TGI [22]: 6.85 µM | GI50 [23]: 3.11 µM | TGI [23]: 9.63 µM | GI50 [24]: 5.07 µM | TGI [24]: > 100 µM | GI50 [25]: 4.58 µM | TGI [25]: > 100 µM | GI50 [26]: 4.79 µM | TGI [26]: > 100 µM | GI50 [58]: 3.86 µM | TGI [58]: > 100 µM | GI50 [29]: 2.59 µM | TGI [29]: 7.16 µM | GI50 [31]: 2.94 µM | TGI [31]: > 100 µM | GI50 [32]: 2.79 µM | TGI [32]: 6.69 µM | GI50 [33]: 4.17 µM | TGI [33]: > 100 µM | GI50 [34]: 2.98 µM | TGI [34]: 7.59 µM | GI50 [35]: 3.8 µM | TGI [35]: > 100 µM | GI50 [36]: 3.72 µM | TGI [36]: > 100 µM | GI50 [37]: 3 µM | TGI [37]: > 100 µM | GI50 [38]: 3.86 µM | TGI [38]: > 100 µM | GI50 [39]: 4.59 µM | TGI [39]: > 100 µM | GI50 [40]: 2.86 µM | TGI [40]: 7.93 µM | GI50 [41]: 3.52 µM | TGI [41]: > 100 µM | GI50 [42]: 4.03 µM | TGI [42]: > 100 µM | GI50 [43]: 4.82 µM | TGI [43]: > 100 µM | GI50 [44]: 3.41 µM | TGI [44]: > 100 µM | GI50 [45]: 2.91 µM | TGI [45]: > 100 µM | GI50 [46]: 5.9 µM | TGI [46]: > 100 µM | GI50 [47]: 4.16 µM | TGI [47]: > 100 µM | GI50 [48]: 1.71 µM | TGI [48]: 4.34 µM | GI50 [49]: 2.9 µM | TGI [49]: > 100 µM | GI50 [50]: 2.35 µM | TGI [50]: 8.71 µM | GI50 [51]: 3.8 µM | TGI [51]: > 100 µM | GI50 [52]: 3.13 µM | TGI [52]: > 100 µM | GI50 [53]: 3.91 µM | TGI [53]: > 100 µM | GI50 [54]: 4.84 µM | TGI [54]: > 100 µM | GI50 [55]: 2.66 µM | TGI [55]: > 100 µM
